# Data as given in patent publication US20140112878A1, “Tyrosinase Inhibitor” (priority 2012, published 2014).
# Key:
# [1] = target: T1, human tyrosinase (neonatal epidermal melanocyte extract) (Homo sapiens, UniProt P14679); test: DOPA oxidase activity (MBTH method) in cell extract; format: biochemical; conditions: for DOPA oxidase activity, value relative to that of the control: N=3; for DOPA oxidase activity suppressive effect (in words): IPMP 0.00075 to 0.015 w/v %
# T1 construct: host or cells: normal human neonatal epidermal melanocytes (NHEMs), detergent/ultrasonication lysate supernatant
# T1 sequence (P14679 19-529): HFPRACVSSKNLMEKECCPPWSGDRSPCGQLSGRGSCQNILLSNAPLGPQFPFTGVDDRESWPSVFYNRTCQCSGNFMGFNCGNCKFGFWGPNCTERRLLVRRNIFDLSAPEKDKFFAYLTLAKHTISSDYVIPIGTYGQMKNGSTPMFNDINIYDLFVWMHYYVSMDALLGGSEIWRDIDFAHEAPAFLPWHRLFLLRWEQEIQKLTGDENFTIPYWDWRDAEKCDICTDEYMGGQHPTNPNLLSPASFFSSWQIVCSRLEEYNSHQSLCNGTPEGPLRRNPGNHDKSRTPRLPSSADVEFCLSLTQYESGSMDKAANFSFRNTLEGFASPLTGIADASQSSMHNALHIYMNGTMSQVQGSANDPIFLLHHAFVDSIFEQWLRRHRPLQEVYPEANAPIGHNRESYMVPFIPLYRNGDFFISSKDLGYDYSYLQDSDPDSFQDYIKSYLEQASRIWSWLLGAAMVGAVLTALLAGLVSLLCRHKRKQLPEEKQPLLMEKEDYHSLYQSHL
# Procedure: The cells were then treated with ultrasonication, and were centrifuged at 15000 r.p.m. for 10 minutes, and the supernatant was obtained.
# Tyrosinase activity was measured using the cell extract mentioned above. […] Then, 20 μL of the following test compounds were added to the wells so that the mixture reaches the final concentration shown in Table 1.
# [2] = tested on: Normal human neonatal epidermal melanocytes (NHEMs); test: Alamar blue cell respiration activity (cell toxicity); format: cell-based; conditions: for Alamar blue (cell toxicity) AVE: cultured NHEMs
# Procedure: (§1) Medium 254 containing a PMA-free growth supplement (HMGS) was used as a medium.
# (§2) After cultivating for 3 days, Endotheline-1 (ET-1), SCF, α-MSH, Histamine, and PGE2, each prepared to be the final concentration of 1 nM in the medium, were added. The same test compounds used in Example 1 were also added so as to reach the final concentration. The mixture was cultured at 37° C. for 3 days, in the presence of 5% CO2. The same amount of DMSO was added as a control.
# After the completion of the cultivation, 20 L/well of alamar blue reagent (Invitrogen Corporation) was added. After incubating for 2 to 3 hours, the fluorescence intensity of the medium was measured to monitor the cell respiration activity. Then, the cells were washed with PBS, and 20 μL/well of extraction buffer (0.1 M Tris-HCL (pH 7.2), 1% NP-40, 0.01% SDS, 100 μM PMSF, 1 μg/m aprotinin) and 20 μL/well of Assay Buffer (4% dimethylformamide, 100 mM Sodium phosphate-buffered (pH 7.1)) were added. The cells were solubilized at 4° C. for 3 hours, and DOPA oxidase activity was measured.
# [3] = target: T2, tyrosinase (DOPA oxidase activity) in normal human neonatal epidermal melanocytes (NHEMs) (Homo sapiens, UniProt P14679); test: DOPA oxidase activity in cultured normal human neonatal epidermal melanocytes
# T2 sequence (P14679 19-529): T1 sequence (P14679 19-529)
# Procedure: as §1, §2
# After the completion of the cultivation, 20 L/well of alamar blue reagent (Invitrogen Corporation) was added. After incubating for 2 to 3 hours, the fluorescence intensity of the medium was measured to monitor the cell respiration activity. Then, the cells were washed with PBS, and 20 μL/well of extraction buffer (0.1 M Tris-HCL (pH 7.2), 1% NP-40, 0.01% SDS, 100 μM PMSF, 1 μg/m aprotinin) and 20 μL/well of Assay Buffer (4% dimethylformamide, 100 mM Sodium phosphate-buffered (pH 7.1)) were added. The cells were solubilized at 4° C. for 3 hours, and DOPA oxidase activity was measured. DOPA oxidase activity was measured according to the following method, with reference to the MBTH method (Winder A. et al., 1991, Eur. J. Biochem. 198:317-326).
# 80 μL of the above-mentioned Assay Buffer, 60 μL of 20.7 mM MBTH (3-methyl-2-benzothiazolinone hydrazone) solution, and 40 μL of 5 mM L-DOPA (L-dihydroxyphenylalanine) solution as a substrate, were added to each well of solubilized cell solution, and the mixture was allowed for reaction at 37° C. for 30 to 60 minutes. Then the color reaction was measured based on absorbance at 490 nm (N=3). The measurements are expressed as values relative to that of the control.
# [4] = tested on: mushroom-derived tyrosinase; conditions: reported in JP-A-9-249544; cited from earlier work
# [5] = tested on: mouse melanoma B-16 cells; conditions: reported in JP-A-9-249544; cited from earlier work
# [6] = 0.67 μM (0.00001 w/v %), Example 3
# [7] = 10 μM (IPMP 0.00015 w/v %), 3 days, Example 2
# [8] = 100 μM (IPMP 0.0015 w/v %), 3 days, Example 2
# [9] = 167.5 μM (0.0025 w/v %), Example 3
"DOPA oxidase activity, value relative to that of the control ([1]; 50 μM (IPMP 0.00075%))","DOPA oxidase activity, value relative to that of the control ([1]; 100 μM (IPMP […]))","DOPA oxidase activity, value relative to that of the control ([1]; 500 μM (IPMP 0.0075%))","DOPA oxidase activity, value relative to that of the control ([1]; 1000 μM (IPMP […]))","DOPA oxidase activity AVE, relative to control [3, 7]","DOPA oxidase activity AVE, relative to control [3, 8]",SMILES,"Alamar blue (cell toxicity) AVE [2, 7]","Alamar blue (cell toxicity) AVE [2, 8]",DOPA oxidase activity suppressive effect (in words) [1],Inhibitory activity on mushroom-derived tyrosinase (in words) [4],Suppressive effect on melanin production (in words) [5],DOPA oxidase activity suppressive effect (in words) ([3]; Example 2),other results
83.1 ± 3.9,62.9 ± 3.5,32.8 ± 3.7,19.8 ± 1.2,74.8,50.6,"Cc1cc(O)ccc1C(C)C [IPMP, isopropylmethylphenol]",94.1,127,–,–,–,–,"Alamar blue (cell toxicity) AVE [2, 6]: 84.9; Alamar blue (cell toxicity) AVE ([2]; 6.7 μM (6.0001 w/v %), Example 3): 85.4; Effect on cell growth (in words) ([2]; 0.00001 to 0.0025 w/v %, Example 3): did not affect cell growth; Alamar blue (cell toxicity) AVE ([2]; 67 μM (0.001 w/v %), Example 3): 78.9; Alamar blue (cell toxicity) AVE [2, 9]: 77.0; Effect on cell growth (alamar blue method, in words) ([2]; at the concentration which showed DOPA oxidase activity suppressive effect, Example 2): did not affect cell growth; DOPA oxidase activity AVE, relative to control [3, 6]: 73.7; DOPA oxidase activity AVE, relative to control ([3]; 6.7 μM, Example 3): 56.5; DOPA oxidase activity AVE, relative to control ([3]; 67 μM (0.001 w/v %), Example 3): 33.9; DOPA oxidase activity AVE, relative to control [3, 9]: 25.6"
–,–,–,–,–,–,O=c1cc(CO)occ1O [Kojic acid],118.3,114.4,–,–,–,–,–
103.7 ± 0.9,93.8 ± 1.6,104.4 ± 0.8,105.4 ± 0.5,98.6,95,"Cc1ccc(C(C)C)c(O)c1 [compound 1, thymol]",84.9,104.4,did not show DOPA oxidase activity suppressive effect,exhibit inhibitory activity on mushroom-derived tyrosinase,exhibit suppressive effect on melanin production,did not show DOPA oxidase activity suppressive effect,–

SMILES,"DOPA oxidase activity, value relative to that of the control ([1]; 50 μM (IPMP 0.00075%))","DOPA oxidase activity, value relative to that of the control ([1]; 100 μM (IPMP […]))","DOPA oxidase activity, value relative to that of the control ([1]; 500 μM (IPMP 0.0075%))","DOPA oxidase activity, value relative to that of the control ([1]; 1000 μM (IPMP […]))","DOPA oxidase activity AVE, relative to control [3, 7]","DOPA oxidase activity AVE, relative to control [3, 8]","Alamar blue (cell toxicity) AVE [2, 7]","Alamar blue (cell toxicity) AVE [2, 8]",DOPA oxidase activity suppressive effect (in words) [1],Inhibitory activity on mushroom-derived tyrosinase (in words) [4],Suppressive effect on melanin production (in words) [5],DOPA oxidase activity suppressive effect (in words) ([3]; Example 2),other results
"Cc1ccc(C(C)C)cc1O [compound 2, carvacrol]",102.1 ± 0.5,96.9 ± 1.8,99.6 ± 1.8,97.8 ± 1.9,99.3,96.3,94.2,115.2,did not show DOPA oxidase activity suppressive effect,exhibit inhibitory activity on mushroom-derived tyrosinase,exhibit suppressive effect on melanin production,did not show DOPA oxidase activity suppressive effect,–
